Assay results: patent US20010053766A1, “Method of treating disorders of the eye” (priority 2000, published 2001)
Ends that are not written are not given here.

Key:
[1] = system: outflow pathway cells of perfused porcine eyes; assay: Morphological studies of perfused eyes (transmission electron microscopy of outflow pathway); conditions: porcine eyes perfused with peptide, 4 pairs, versus sham controls
Description: After completion of RGD perfusion experiments, 4 pairs of the experimental and the control eyes were fixed for morphological examination. The fixation was performed by perfusing overnight at constant pressure of 15 mmHg with perfusion buffer containing 2.5% gluteraldehyde and 2.0% formaldehyde. Small cross-section wedges of the outflow pathway area of fixed eyes were prepared for transmission electron microscopy as described previously (Epstein et al, Invest. Ophthalmol Vis. Sci. 40:74-8116 (1999)). The specimens were fixed in 1% osmium tetraoxide in 0.1 M sodium cacodylate buffer and stained with 1% uranyl acetate for 1 hr in dark. Further, the tissues were dehydrated, infiltrated and embedded on Spurr embedding medium (Ted Pella, Inc., Redding, Calif.). Ultrathin sections (70 nm) were obtained by microtomy and stained with potassium permanganate and Sato's lead sequentially before examined with a transmission electron microscope (1200 EX; JEOL, Peabody, Mass.).

[2] = system: New Zealand White rabbits; assay: RGD-peptide injection in the anterior chamber of rabbit eye; format: in vivo; conditions: 500 μg in PBS injected into the anterior chamber of one eye, live rabbits n=3
Description: New Zealand White rabbits of approximately five pounds were used for this experiment. Baseline Intraocular Pressure (IOP) data was obtained using a MENTOR tonopen prior to anaesthesia. The rabbits were anaesthetized with IM KETAMINE and topical proparacaine. The GRGDTP peptide (500 μg) was dissolved in phosphate buffered saline (PBS) and injected into the anterior chamber of only one eye. Further intraocular pressure mesurements were performed with a tonopen and data recorded in a time dependent manner, as shown in FIG. 8.
The results are expressed as percent change in IOP as compared to basal values obtained before injection of the RGD peptide. The basal value was taken as IOP (0%) in both eyes and the contralateral eye was used as control.

[3] = system: Human Schlemm's canal (SC) cell monolayers; assay: SC cell monolayer permeability barrier function (HRP diffusion on Transwells); format: cell-based; conditions: 200 μM peptide, 1 hr, complete medium, n=7; mean ± S.E.
Description: (§1) Human cadaver eye tissues were obtained from the National Disease Research Interchange (NDRI; Philadelphia, Pa.), and the SC cells were isolated following the techniques previously described (Stammer et al, Invest. Ophthalmol. Vis. Sci. 39:1804 (1998)). The cells were grown in Dulbecco's modified Eagle's medium with 10% fetal bovine serum, 2 mM L-glutamine, 100 U/ml penicillin G and 100 μg/ml streptomycine sulfate (all from GibcoBRL, Gaithersburg, Md.). The primary cultures of SC cells were used between the passages of three to six, throughout the experiments.
To correlate the specific effects of the RGD peptide compared to a control RGE peptide, the standard device was used to measure the monolayer permeability barrier function on Transwells cell culture chambers (fibronectin-coated polycarbonate filters, […] pore size, Costar Corp.) as described by Lampugnani et al (J. Cell Biol. 112: 479-490 (1991)). The diffusion of horseradish peroxidase (HRP) through SC cell monolayer was determined with and without RGD hexapeptide GRGDTP (Sigma, St. Louis, Mo.) or known control RGE hexapeptide GRGESP (GibcoBRL, Gaithersberg, Md.). […] Results were expressed as percent change in enzyme activity as compared to untreated controls. Values were obtained from three independent experiments and expressed as means±S.E. A paired t-test analysis was also performed with respect to untreated controls.

[4] = system: Human Schlemm's canal (SC) cell monolayers; assay: SC cells monolayer integrity assay in vitro (phase contrast, F-actin and focal adhesion staining); format: cell-based; conditions: complete medium, 37 C
Description: as §1
To evaluate the effect of RGD peptide on monolayer integrity, the SC cells were seeded on fibronectin-coated coverslips and grown for 10 days in complete medium. Before the experiment, the gaps in the confluent cells layer on coverslips were examined thoroughly. Further, the culture media was replaced with RGD peptide or control RGE peptide (200 μM)-containing complete medium and incubated at 37° C. in CO2 incubator. The changes in morphology (cell retraction, cell-cell attachments) were followed for 3 hrs. The induced morphological changes were monitored by phase contrast microscopy (Zeiss IM 35). For clear illustration of the specific and non-toxic effects of RGD peptide, the changes in SC cells monolayer integrity and reversibility were followed after treatment at higher concentration (1.0 mM) as compared to control RGE peptide. The coverslips were fixed with 3.7% formaldehyde and stained for F-actin and focal adhesions as described earlier (Lampugnani et al, J. Cell Biol. 112: 479-490 (1991)). The RGD-containing medium was removed with complete culture medium after three times washing and incubation was continued. Further, the reversibility of the gaps formation was followed.

| Substance | cellular toxicity in outflow pathway of perfused eyes [1] | cellular toxicity in outflow pathway of perfused eyes ([1]; listed as RGD) | evidence of anterior chamber inflammation and wound leakage [2] | increase in SC cells monolayer permeability (HRP diffusion) as compared to untreated controls [3] | morphological effect on SC cell monolayer integrity ([4]; 200 μM peptide, up to 3 hrs) | morphological effect on SC cell monolayer integrity ([4]; 1.0 mM peptide, 3 hrs) | morphological effect on SC cell monolayer integrity ([4]; 1.0 mM peptide, 3 hrs, listed as RGE peptide) |
| --- | --- | --- | --- | --- | --- | --- | --- |
| GRGDTP [GRGDTP] | did not show signs of cellular toxicity | no sign of cellular toxicity | no clinically significant changes | – | – | – | – |
| GRGESP | – | – | – | 12%±3 | compact cellular morphology | no such effect was noted | no detectable effects |
